According to ChEMBL document CHEMBL1201862, “PubChem BioAssay data set” (2004):
One block for each molecule: values may come before it. Calls of active or inactive are those of the source.

What was measured:
Beta-galactosidase = Beta-galactosidase (Escherichia coli, UniProt Q8VNN2); test: PubChem AID 485352; type: functional
[1] = target: Type-1 angiotensin II receptor (Homo sapiens, UniProt P30556); test: antagonism of angiotensin II type 1 receptor – cell-based, uHTS hits, selectivity assay for APJ receptor antagonist project, dose response (AID 463214); type: functional;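 also: antagonist potency against angiotensin II stimulated AT1 response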
Bcl-2-related protein A1 = target: T1, Bcl-2-related protein A1 (Mus musculus, UniProt Q07440); type: functional;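 also: confirmatory dose–response counterscreen on Bfl-1, used to check hits from a UBC13 polyubiquitin inhibitor campaign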
T1 sequence (Q07440 whole entry): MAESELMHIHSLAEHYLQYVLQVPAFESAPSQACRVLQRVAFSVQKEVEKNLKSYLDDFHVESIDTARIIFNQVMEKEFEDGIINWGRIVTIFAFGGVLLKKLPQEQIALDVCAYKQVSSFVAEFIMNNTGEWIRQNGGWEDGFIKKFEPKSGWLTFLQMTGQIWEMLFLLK

[2] = target: T2, Ubiquitin-conjugating enzyme E2 N (Homo sapiens, UniProt P61088); type: functional;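 also: Dose-response confirmation in a TR-FRET assay detecting UBC13-driven polyubiquitin chain formation, inhibition measured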
T2 sequence (P61088 whole entry): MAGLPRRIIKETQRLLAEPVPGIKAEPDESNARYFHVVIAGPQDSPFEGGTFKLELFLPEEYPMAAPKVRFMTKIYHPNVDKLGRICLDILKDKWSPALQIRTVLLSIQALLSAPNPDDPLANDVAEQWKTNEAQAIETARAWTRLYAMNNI

Melanocortin receptor 4 = Melanocortin receptor 4 (Homo sapiens, UniProt P32245); test: inhibitors of MC4R cAMP signaling – cell-based, TR-FRET, biased antagonists, dose response (AID 602298); type: functional;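 also: antagonist potency against agonist-stimulated cAMP production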
[3] = cAMP pathway inhibition in counterscreen cell line – TR-FRET cAMP detection, counter-screen for MC4R biased antagonist project, dose response (AID 602305); type: functional, cell-based;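 also: U2OS cells stimulated with forskolin near its EC80 as the cAMP inducer; potency is for inhibition of forskolin-stimulated cAMP signaling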
[4] = target: T3, DNA repair protein RAD52 homolog (Homo sapiens, UniProt P43351); type: functional, biochemical
T3 sequence (P43351 whole entry): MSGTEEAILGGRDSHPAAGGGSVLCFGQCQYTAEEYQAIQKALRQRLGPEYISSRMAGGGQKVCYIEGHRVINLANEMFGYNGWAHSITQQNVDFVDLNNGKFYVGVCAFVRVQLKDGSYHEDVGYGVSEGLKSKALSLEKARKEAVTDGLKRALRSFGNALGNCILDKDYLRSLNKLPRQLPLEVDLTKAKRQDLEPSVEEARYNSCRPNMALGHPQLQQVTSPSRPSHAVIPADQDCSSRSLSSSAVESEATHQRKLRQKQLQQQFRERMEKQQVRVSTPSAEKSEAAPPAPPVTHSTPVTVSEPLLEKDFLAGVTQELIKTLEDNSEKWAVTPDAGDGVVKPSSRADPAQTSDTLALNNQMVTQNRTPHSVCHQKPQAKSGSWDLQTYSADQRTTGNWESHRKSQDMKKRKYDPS

Hexokinase-1 = Hexokinase-1 (Homo sapiens, UniProt P19367); test: hexokinase 1 activity inhibitors, potency – biochemical, set 2, resazurin fluorescence coupled readout, selectivity assay for HKDC1 inhibitor project, SAR follow-up (AID 588356); type: functional
Hexokinase HKDC1 = target: T4, Hexokinase HKDC1 (Homo sapiens, UniProt Q2TB90); test: analog inhibition of human HKDC1 activity – biochemical, set 2, SAR follow-up (AID 588355); type: functional
T4 sequence (Q2TB90 whole entry): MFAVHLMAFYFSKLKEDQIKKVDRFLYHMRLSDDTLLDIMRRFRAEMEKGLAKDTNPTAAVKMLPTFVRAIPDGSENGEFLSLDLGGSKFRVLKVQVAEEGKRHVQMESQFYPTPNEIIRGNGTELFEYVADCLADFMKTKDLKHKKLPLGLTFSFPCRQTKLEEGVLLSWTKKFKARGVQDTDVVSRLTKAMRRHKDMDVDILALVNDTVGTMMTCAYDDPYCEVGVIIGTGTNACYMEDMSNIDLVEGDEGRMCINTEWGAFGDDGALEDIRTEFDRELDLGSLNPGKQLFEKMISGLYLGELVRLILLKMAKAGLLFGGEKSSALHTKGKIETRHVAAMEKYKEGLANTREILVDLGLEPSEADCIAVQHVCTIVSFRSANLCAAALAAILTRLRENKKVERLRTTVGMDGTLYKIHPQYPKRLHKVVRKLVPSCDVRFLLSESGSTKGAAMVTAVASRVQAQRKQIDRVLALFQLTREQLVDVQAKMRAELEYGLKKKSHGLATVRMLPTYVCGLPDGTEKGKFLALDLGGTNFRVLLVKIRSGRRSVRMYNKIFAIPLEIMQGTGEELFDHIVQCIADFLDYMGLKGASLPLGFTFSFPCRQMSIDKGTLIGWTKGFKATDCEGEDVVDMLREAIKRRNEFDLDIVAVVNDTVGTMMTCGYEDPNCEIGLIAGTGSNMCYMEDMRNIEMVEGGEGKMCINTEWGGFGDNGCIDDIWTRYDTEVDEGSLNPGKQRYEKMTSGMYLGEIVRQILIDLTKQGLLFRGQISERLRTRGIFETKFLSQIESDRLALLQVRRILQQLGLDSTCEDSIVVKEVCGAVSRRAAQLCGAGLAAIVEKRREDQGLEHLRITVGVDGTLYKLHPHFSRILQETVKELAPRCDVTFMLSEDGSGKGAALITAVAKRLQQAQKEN

INS1 [5] = test: beta-cell survival under cytokine stress – INS-1E, ATP luminescence, dry powder, dose response (AID 488844); type: functional, cell-based; conditions: Rattus norvegicus
[6] = suppression of NO production in INS-1E cells – cell-based, Griess absorbance, dry powder, set 3, dose response (AID 488870); type: functional; conditions: Rattus norvegicus
INS1 [7] = test: INS-1E mitochondrial potential loss inhibitors – cell-based, JC-1 fluorescence, dry powder, set 2, dose response (AID 488867); type: functional; conditions: Rattus norvegicus
INS1 [8] = test: INS-1E mitochondrial potential rescue under cytokines – cell-based, JC-1 fluorescence ratio, dry powder, dose response (AID 488931); type: functional; conditions: Rattus norvegicus

Beta-galactosidase, sequence (Q8VNN2 whole entry): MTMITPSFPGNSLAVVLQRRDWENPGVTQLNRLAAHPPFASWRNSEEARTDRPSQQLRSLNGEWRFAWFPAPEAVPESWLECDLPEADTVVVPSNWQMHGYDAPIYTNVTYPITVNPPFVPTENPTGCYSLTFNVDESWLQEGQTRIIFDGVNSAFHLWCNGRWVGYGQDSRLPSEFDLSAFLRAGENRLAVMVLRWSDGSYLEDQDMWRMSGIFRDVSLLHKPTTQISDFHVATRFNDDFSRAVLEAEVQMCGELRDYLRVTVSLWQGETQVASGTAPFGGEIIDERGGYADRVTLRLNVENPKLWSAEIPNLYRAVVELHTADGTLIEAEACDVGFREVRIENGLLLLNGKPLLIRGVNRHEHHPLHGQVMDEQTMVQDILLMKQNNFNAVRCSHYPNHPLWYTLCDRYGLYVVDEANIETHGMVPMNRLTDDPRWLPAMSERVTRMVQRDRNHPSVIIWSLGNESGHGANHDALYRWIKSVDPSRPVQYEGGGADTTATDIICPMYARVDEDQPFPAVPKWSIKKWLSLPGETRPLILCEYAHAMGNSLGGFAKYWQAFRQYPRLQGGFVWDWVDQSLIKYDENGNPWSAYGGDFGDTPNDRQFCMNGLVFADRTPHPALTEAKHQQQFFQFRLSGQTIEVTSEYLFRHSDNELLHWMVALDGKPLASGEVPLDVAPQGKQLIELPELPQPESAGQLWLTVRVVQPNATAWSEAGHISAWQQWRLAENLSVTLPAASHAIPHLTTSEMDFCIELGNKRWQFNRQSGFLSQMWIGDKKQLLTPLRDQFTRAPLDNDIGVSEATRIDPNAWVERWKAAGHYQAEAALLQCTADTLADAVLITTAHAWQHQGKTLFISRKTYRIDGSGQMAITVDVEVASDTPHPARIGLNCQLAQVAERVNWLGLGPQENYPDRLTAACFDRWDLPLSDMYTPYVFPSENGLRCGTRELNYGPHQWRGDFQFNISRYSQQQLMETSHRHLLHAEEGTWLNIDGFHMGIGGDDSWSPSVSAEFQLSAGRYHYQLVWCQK
Hexokinase-1, sequence (P19367 whole entry): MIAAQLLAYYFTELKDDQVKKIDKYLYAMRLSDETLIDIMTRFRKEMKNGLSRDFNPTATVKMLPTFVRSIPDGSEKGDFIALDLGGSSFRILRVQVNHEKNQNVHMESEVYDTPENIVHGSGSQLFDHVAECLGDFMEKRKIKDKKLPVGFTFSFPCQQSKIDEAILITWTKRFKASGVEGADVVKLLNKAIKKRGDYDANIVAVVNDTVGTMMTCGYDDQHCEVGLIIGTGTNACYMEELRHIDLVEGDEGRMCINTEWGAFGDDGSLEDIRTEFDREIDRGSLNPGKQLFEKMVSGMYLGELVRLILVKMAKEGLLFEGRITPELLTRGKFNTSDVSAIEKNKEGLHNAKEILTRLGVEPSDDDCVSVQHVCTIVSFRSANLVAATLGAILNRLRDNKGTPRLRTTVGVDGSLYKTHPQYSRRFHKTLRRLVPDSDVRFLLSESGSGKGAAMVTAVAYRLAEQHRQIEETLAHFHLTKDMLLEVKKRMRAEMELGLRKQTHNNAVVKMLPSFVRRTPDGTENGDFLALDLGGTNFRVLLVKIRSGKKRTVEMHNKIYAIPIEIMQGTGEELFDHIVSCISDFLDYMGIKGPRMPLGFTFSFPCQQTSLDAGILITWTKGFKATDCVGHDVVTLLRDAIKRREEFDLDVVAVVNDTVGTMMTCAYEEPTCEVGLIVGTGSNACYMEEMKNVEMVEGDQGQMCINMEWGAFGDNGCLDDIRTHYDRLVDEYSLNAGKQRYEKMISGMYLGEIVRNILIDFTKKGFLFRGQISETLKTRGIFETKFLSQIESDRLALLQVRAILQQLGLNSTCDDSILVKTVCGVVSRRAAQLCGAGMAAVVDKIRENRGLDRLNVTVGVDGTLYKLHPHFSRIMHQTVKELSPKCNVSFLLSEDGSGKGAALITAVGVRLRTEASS
Type-1 angiotensin II receptor, sequence (P30556 whole entry): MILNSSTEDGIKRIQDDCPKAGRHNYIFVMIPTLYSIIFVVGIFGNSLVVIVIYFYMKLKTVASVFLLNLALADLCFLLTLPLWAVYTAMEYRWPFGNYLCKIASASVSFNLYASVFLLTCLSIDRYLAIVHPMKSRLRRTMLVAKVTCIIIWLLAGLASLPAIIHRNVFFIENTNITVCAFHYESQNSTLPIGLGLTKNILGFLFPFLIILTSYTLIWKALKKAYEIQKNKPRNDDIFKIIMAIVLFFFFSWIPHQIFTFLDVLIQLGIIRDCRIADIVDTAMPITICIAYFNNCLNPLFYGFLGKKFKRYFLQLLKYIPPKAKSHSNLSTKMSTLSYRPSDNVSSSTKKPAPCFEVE
Melanocortin receptor 4, sequence (P32245 whole entry): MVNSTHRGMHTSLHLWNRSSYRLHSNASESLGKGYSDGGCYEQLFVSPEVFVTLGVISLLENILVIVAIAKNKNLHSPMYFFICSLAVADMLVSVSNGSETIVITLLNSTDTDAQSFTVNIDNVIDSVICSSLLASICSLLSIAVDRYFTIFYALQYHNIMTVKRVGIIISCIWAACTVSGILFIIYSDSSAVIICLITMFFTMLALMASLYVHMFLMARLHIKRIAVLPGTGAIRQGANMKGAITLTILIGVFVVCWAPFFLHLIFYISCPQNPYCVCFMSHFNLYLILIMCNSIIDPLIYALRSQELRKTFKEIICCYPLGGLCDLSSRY

SMILES: CCC[C@@H](CN1CCC[C@H]1CN1C(N)=NC[C@H]1CC(C)C)N1C[C@@H](Cc2ccccc2)N(CCc2ccc(Cl)c(Cl)c2)C1=N
EC50 (Beta-galactosidase): > 40 µM (inactive)
IC50 [1]: > 40 µM (not active)
IC50 (Bcl-2-related protein A1): > 20 µM (inactive)
IC50 [2]: 12.5 µM (active)
IC50 (Melanocortin receptor 4): 7.65 µM (active)
IC50 [3]: > 64.6 µM (inactive)
AC50 [4]: 14.7 µM (active)

IC50 (Hexokinase-1): > 80 µM (inactive)
IC50 (Hexokinase HKDC1): > 80 µM (inactive)
SMILES: Cc1ccccc1NC1c2ccccc2C(=O)N1c1ccccc1C (stereo not drawn)

SMILES: COc1ccc(S(=O)(=O)N(C)C[C@H]2Oc3c(NC(=O)Nc4cccc5ccccc45)cccc3C(=O)N([C@H](C)CO)C[C@@H]2C)cc1
AC50 (INS1 [5]): 21.9 µM (active)
AC50 [6]: 63.9 µM (active)
AC50 (INS1 [7]): 43.4 µM (active)
AC50 (INS1 [8]): 33.7 µM (active)
